Experimental data taken from article PMC10518257 (Nature Cancer, 2023).
Values joined by “and” are separate entries in the source; they are usually repeats but may differ in a detail not shown here. Equal values may be shown once. Read-outs that look alike come from different tables or passages of the source.

Tests used:
[1] = target: T1, panel of 255 (vepafestinib) or 256 (all other inhibitors) recombinant kinases (Homo sapiens, UniProt P16234); assay: Kinase selectivity profiling at a single concentration (Carna Biosciences); format: biochemical; conditions: 22 nM
T1 construct: purchased Carna Biosciences

[2] = target: T2, panel of 255 (vepafestinib) or 256 (all other inhibitors) recombinant kinases (Homo sapiens, UniProt P35916); assay: as above; format: biochemical; conditions: 22 nM
T2 construct: purchased Carna Biosciences

[3] = target: panel of 255 (vepafestinib) or 256 (all other inhibitors) recombinant kinases; assay: as above; format: biochemical; conditions: 22 nM, 256 kinases
[4] = tested on: Ba/F3 cells expressing KIF5B–RET^G810S; assay: Growth inhibition assay in Ba/F3 cells (CellTiter-Glo, 72 h); format: cell-based; conditions: replicate Sets 1-3
[5] = tested on: Ba/F3 cells expressing KIF5B–RET^V804M; assay: as above; format: cell-based; conditions: replicate sets
[6] = tested on: phosphorylation of RET^G810R, RET^G810S and RET^G810C in Ba/F3 cells; assay: Western blotting of RET phosphorylation in Ba/F3 KIF5B–RET cells; format: cell-based; conditions: 1 h, western blot
[7] = tested on: LUAD-0002AS1 cells (KIF5B::RET); assay: Dose-response western blotting, EC50 for inhibition of protein phosphorylation; format: cell-based; conditions: Homo sapiens, LUAD-0002AS1, 2 h, densitometry
HBECp53-EV cells = assay: Growth inhibition (alamarBlue, 96 h); format: cell-based, human; conditions: for raw viability signal (Source Data Fig. 3b-c): HBEC-EV, replicate sets
LC-2/ad cells = assay: Growth inhibition (alamarBlue, 96 h); format: cell-based, human; conditions: for raw viability signal (Source Data Fig. 3b-c): LC-2/Ad, replicate sets
LUAD-0086AS3 cells = assay: Growth inhibition (alamarBlue, 96 h); format: cell-based, human; conditions: for raw viability signal (Source Data Fig. 3b-c): LUAD-0086AS3 (n=1, 3 replicates)
LUAD-0087AS2 cells = assay: Growth inhibition (alamarBlue, 96 h); format: cell-based, human; conditions: for raw viability signal (Source Data Fig. 3b-c): LUAD-0087AS2, replicate sets
LUAD-0077AS1 PDX = assay: PDX efficacy study; format: in vivo, NSG mice; set-up: Tumor volume: unit not given here; conditions: 10 mg/kg BID
[8] = tested on: Ba/F3 KIF5B–RET^G810R allograft tumors; assay: Subcutaneous allograft efficacy study; format: in vivo, BALB/c nude mice; conditions: in mm³ (unit assumed);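 note: mean tumor volume per dosing group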
LUAD-0087AS2 PDX = assay: PDX efficacy study; conditions: for Tumor volume: LUAD-0087AS2, selpercatinib group 30 mg/kg BID, individual animals
[9] = Homo sapiens, 96 h, read-out: IC50 for Inhibition of Growth (95% CI)

T2 sequence (P35916 25-1363): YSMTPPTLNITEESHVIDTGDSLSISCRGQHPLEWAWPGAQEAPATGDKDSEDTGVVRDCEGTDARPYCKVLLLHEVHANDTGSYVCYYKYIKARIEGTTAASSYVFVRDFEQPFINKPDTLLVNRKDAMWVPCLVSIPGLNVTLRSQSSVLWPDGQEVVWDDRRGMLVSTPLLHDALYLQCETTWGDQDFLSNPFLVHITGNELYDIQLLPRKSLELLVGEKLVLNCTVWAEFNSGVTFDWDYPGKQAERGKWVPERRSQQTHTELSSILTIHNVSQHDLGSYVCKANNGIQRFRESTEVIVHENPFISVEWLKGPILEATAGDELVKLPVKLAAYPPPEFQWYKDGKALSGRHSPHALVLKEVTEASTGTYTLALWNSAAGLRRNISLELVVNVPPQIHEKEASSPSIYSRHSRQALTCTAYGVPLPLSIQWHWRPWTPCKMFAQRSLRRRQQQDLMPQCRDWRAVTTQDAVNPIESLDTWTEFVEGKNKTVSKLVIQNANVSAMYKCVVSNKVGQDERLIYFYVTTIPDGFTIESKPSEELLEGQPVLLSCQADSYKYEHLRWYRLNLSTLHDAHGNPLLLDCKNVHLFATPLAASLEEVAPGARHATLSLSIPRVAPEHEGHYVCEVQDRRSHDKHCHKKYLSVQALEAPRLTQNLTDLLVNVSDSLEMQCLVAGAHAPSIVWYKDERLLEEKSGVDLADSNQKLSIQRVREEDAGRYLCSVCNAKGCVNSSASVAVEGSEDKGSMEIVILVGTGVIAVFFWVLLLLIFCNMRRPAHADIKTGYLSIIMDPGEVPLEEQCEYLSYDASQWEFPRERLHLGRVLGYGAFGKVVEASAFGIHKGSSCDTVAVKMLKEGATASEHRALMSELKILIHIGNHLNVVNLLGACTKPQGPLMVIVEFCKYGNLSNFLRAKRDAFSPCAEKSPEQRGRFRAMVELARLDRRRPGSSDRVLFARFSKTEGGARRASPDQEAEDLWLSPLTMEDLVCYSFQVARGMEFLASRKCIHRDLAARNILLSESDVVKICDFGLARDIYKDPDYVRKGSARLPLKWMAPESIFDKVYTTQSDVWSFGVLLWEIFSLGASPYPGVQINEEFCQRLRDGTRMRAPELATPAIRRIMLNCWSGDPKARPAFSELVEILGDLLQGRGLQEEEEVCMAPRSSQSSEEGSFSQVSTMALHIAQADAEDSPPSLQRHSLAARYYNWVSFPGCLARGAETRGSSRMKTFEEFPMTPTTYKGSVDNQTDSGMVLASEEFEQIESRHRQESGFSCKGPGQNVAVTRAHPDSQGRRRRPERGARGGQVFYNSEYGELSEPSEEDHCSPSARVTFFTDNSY
T1 sequence (P16234 24-1089): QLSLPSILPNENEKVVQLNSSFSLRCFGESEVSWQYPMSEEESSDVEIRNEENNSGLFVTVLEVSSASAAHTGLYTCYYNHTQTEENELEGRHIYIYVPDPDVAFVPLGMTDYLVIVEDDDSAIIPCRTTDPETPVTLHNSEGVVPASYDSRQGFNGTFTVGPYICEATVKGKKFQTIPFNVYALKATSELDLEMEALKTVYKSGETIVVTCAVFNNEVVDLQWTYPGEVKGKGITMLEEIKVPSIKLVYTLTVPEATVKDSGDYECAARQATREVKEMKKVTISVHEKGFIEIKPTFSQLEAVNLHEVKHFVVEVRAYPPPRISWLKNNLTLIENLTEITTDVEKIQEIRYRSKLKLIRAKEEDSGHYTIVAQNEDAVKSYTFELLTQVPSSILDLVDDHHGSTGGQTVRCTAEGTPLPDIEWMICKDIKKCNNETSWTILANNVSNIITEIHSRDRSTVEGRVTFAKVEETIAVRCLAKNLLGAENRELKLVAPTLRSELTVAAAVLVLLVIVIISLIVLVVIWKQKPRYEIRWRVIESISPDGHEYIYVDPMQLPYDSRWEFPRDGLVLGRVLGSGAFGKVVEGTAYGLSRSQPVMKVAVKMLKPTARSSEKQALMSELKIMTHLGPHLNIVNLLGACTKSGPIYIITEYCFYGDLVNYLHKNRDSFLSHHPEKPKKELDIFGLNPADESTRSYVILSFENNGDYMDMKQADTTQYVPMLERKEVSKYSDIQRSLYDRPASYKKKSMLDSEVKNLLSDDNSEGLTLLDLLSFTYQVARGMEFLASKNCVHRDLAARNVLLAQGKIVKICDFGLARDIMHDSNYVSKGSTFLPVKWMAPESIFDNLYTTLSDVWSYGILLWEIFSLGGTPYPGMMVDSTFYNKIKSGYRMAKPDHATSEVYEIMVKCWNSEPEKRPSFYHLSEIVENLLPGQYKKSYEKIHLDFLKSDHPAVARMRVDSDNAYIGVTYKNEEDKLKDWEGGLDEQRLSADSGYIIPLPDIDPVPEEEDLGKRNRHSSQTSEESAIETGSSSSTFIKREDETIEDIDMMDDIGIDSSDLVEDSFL

COc1ccc(CN2C3CC2CN(c2ccc(-c4cc(OCC(C)(C)O)cn5ncc(C#N)c45)cn2)C3)cn1 [Selpercatinib]
% Inhibiton PDGFRα [1]: 28.7% | % Inhibiton FLT4 [2]: 84.9% | kinases inhibited by >50% [3]: three | GI50 ([4]; Ba/3-KIF5B-RET-G810S): 182 nM and 173 nM | GI50 ([4]; Mus musculus, BaF3, Ba/3-KIF5B-RET-G810S): 143 nM | GI50 ([5]; Ba/3-KIF5B-RET-V804M): 36.4 nM and 32.9 nM | GI50 ([5]; Mus musculus, BaF3, Ba/3-KIF5B-RET-V804M): 30.6 nM | block of phosphorylation of RET^G810R, RET^G810S or RET^G810C [6]: did not block | EC50 ([7]; read-out: EC50 for Inhibition of Protein Phosphorylation (95% CI), AKT S473): 2 nM | EC50 ([7]; read-out: EC50 for Inhibition of Protein Phosphorylation (95% CI), ERK1/2 T202/Y204): 1.5 nM | EC50 ([7]; read-out: EC50 for Inhibition of Protein Phosphorylation (95% CI), MEK1/2 S217/S221): 1.3 nM | EC50 ([7]; read-out: EC50 for Inhibition of Protein Phosphorylation (95% CI), P70 RSK T421/S424): 1.4 nM | EC50 ([7]; read-out: EC50 for Inhibition of Protein Phosphorylation (95% CI), RET Y905): 0.4 nM | EC50 ([7]; read-out: EC50 for Inhibition of Protein Phosphorylation (95% CI), S6RP S235/S236): 0.5 nM | raw viability signal (Source Data Fig. 3b-c) (HBECp53-EV cells; 0.01 nM): 19116.4 (2×) and 30437.1 | raw viability signal (Source Data Fig. 3b-c) (HBECp53-EV cells; 0.1 nM): 18667.6 (2×) and 30340.4 | raw viability signal (Source Data Fig. 3b-c) (HBECp53-EV cells; 1 nM): 19461.2 (2×) and 29511.3 | raw viability signal (Source Data Fig. 3b-c) (HBECp53-EV cells; 10 nM): 19276.9 (2×) and 28618.6 | raw viability signal (Source Data Fig. 3b-c) (HBECp53-EV cells; 100 nM): 19331.4 (2×) and 28192.3 | raw viability signal (Source Data Fig. 3b-c) (HBECp53-EV cells; 1000 nM): 18208.7 (2×) and 25648.6 | raw viability signal (Source Data Fig. 3b-c) (HBECp53-EV cells; 10000 nM): 8503.33 | IC50 (HBECp53-EV cells; [9]): 11400 nM | IC50 (LC-2/ad cells; Homo sapiens, LC-2-ad, 96 h, read-out: IC50 for Inhibition of Growth (95% CI)): 12 nM | raw viability signal (Source Data Fig. 3b-c) (LC-2/ad cells; 0.01 nM): 13499 and 23395.2 | raw viability signal (Source Data Fig. 3b-c) (LC-2/ad cells; 0.1 nM): 14768.6 and 22354.3 | raw viability signal (Source Data Fig. 3b-c) (LC-2/ad cells; 1 nM): 11358.1 and 22611.3 | raw viability signal (Source Data Fig. 3b-c) (LC-2/ad cells; 10 nM): 5849.16 and 13692 | raw viability signal (Source Data Fig. 3b-c) (LC-2/ad cells; 100 nM): 4303.48 and 6998.63 | raw viability signal (Source Data Fig. 3b-c) (LC-2/ad cells; 1000 nM): 4639.86 and 5076.98 | raw viability signal (Source Data Fig. 3b-c) (LC-2/ad cells; 10000 nM): 1761.41 and 1760.41 | IC50 (LUAD-0086AS3 cells; [9]): 84 nM | raw viability signal (Source Data Fig. 3b-c) (LUAD-0086AS3 cells; 0.01 nM): 32605.6 and 32345.5 and 24840.6 | raw viability signal (Source Data Fig. 3b-c) (LUAD-0086AS3 cells; 0.1 nM): 24088.4 and 24382.4 and 28533.2 | raw viability signal (Source Data Fig. 3b-c) (LUAD-0086AS3 cells; 1 nM): 21980.7 and 23036.6 and 27631.4 | raw viability signal (Source Data Fig. 3b-c) (LUAD-0086AS3 cells; 10 nM): 22728.2 and 21261.8 and 26828.6 | raw viability signal (Source Data Fig. 3b-c) (LUAD-0086AS3 cells; 100 nM): 13108.2 and 14842.7 and 15753 | raw viability signal (Source Data Fig. 3b-c) (LUAD-0086AS3 cells; 1000 nM): 5050.52 and 4540.04 and 5107.48 | raw viability signal (Source Data Fig. 3b-c) (LUAD-0086AS3 cells; 10000 nM): 1139.12 and 1223.75 and 1244.48 | IC50 (LUAD-0087AS2 cells; [9]): 11 nM | raw viability signal (Source Data Fig. 3b-c) (LUAD-0087AS2 cells; 0.01 nM): 15388.6 and 12720.2 | raw viability signal (Source Data Fig. 3b-c) (LUAD-0087AS2 cells; 0.1 nM): 16047 and 13628.3 | raw viability signal (Source Data Fig. 3b-c) (LUAD-0087AS2 cells; 1 nM): 15441.4 and 12355.8 | raw viability signal (Source Data Fig. 3b-c) (LUAD-0087AS2 cells; 10 nM): 6632.52 and 4277.26 | raw viability signal (Source Data Fig. 3b-c) (LUAD-0087AS2 cells; 100 nM): 5690.09 and 3170.8 | raw viability signal (Source Data Fig. 3b-c) (LUAD-0087AS2 cells; 1000 nM): 5599.27 and 2744.81 | raw viability signal (Source Data Fig. 3b-c) (LUAD-0087AS2 cells; 10000 nM): 3412.76 and 2132.34 | Area Under Curve Mean (LUAD-0077AS1 PDX; Fig. 6b LUAD-0077AS1 tumor growth): -23 | Change in tumor volume (block without heading, Fig. 6b) (LUAD-0077AS1 PDX; LUAD-0077AS1, individual animals): 38.5614 and 19.1252 and 18.7579 and 13.1905 and -24.8651 | Tumor volume (LUAD-0077AS1 PDX; LUAD-0077AS1, treatment day 0, individual animals): 87.11 (3×) and 85.5 and 88.7 | Tumor volume (LUAD-0077AS1 PDX; LUAD-0077AS1, treatment day 4, individual animals): 68.07 (2×) and 74.9 and 73.54 and 70.82 | Tumor volume (LUAD-0077AS1 PDX; LUAD-0077AS1, treatment day 7, individual animals): 60.32 and 69.38 and 66.76 and 62.86 | Tumor volume (LUAD-0077AS1 PDX; LUAD-0077AS1, treatment day 11, individual animals): 55.4 and 58.99 and 56.5 and 54.36 and 55.52 | Tumor volume (LUAD-0077AS1 PDX; LUAD-0077AS1, treatment day 14, individual animals): 43.41 and 58.99 (2×) and 54.36 and 55.52 | Tumor volume (LUAD-0077AS1 PDX; LUAD-0077AS1, treatment day 19, individual animals): 65.45 and 118.47 and 103.45 and 103.77 and 100.4 | Tumor volume (LUAD-0077AS1 PDX; LUAD-0077AS1, treatment day 22, individual animals): 73.3 and 171.06 and 147.55 and 142.9 and 164.22 | Tumor volume (LUAD-0077AS1 PDX; LUAD-0077AS1, treatment day 25, individual animals): 73.3 and 231.59 and 205.8 and 209.11 and 214.85 | Tumor Volume Mean ([8]; Fig. 7c Ba/F3-KIF5B::RET G810R, selpercatinib 10 mg/kg BID, day 1): 153.47 | Tumor Volume Mean ([8]; Fig. 7c Ba/F3-KIF5B::RET G810R, selpercatinib 10 mg/kg BID, day 4): 195.84 | Tumor Volume Mean ([8]; Fig. 7c Ba/F3-KIF5B::RET G810R, selpercatinib 10 mg/kg BID, day 8): 432.66 | Tumor Volume Mean ([8]; Fig. 7c Ba/F3-KIF5B::RET G810R, selpercatinib 10 mg/kg BID, day 11): 585.46 | Tumor Volume Mean ([8]; Fig. 7c Ba/F3-KIF5B::RET G810R, selpercatinib 10 mg/kg BID, day 15): 999.76 | Tumor Volume Mean ([8]; Fig. 7d Ba/F3-KIF5B::RET G810R, selpercatinib 30 mg/kg BID, day 1): 157.6 | Tumor Volume Mean ([8]; Fig. 7d Ba/F3-KIF5B::RET G810R, selpercatinib 30 mg/kg BID, day 4): 307.7 | Tumor Volume Mean ([8]; Fig. 7d Ba/F3-KIF5B::RET G810R, selpercatinib 30 mg/kg BID, day 8): 440.3 | Tumor Volume Mean ([8]; Fig. 7d Ba/F3-KIF5B::RET G810R, selpercatinib 30 mg/kg BID, day 11): 551.9 | Tumor Volume Mean ([8]; Fig. 7d Ba/F3-KIF5B::RET G810R, selpercatinib 30 mg/kg BID, day 15): 795.7 | Area Under Curve Mean (LUAD-0087AS2 PDX; Fig. 6a LUAD-0087AS2 tumor growth, selpercatinib 30 mg/kg BID): -1216 | Tumor volume (LUAD-0087AS2 PDX; treatment day 0): 118.47 (2×) and 116.65 and 114.49 (2×) | Tumor volume (LUAD-0087AS2 PDX; treatment day 3): 107.17 (3×) and 103.77 and 112.73 | Tumor volume (LUAD-0087AS2 PDX; treatment day 7): 99.78 and 112.28 and 107.17 (2×) and 110.58 | Tumor volume (LUAD-0087AS2 PDX; treatment day 10): 95.03 (4×) and 96.62 | Tumor volume (LUAD-0087AS2 PDX; treatment day 14): 91.61 and 88.25 and 95.03 and 86.78 and 91.87 | Tumor volume (LUAD-0087AS2 PDX; treatment day 17): 103.77 and 88.25 and 107.17 and 96.62 and 91.87 | Tumor volume (LUAD-0087AS2 PDX; treatment day 21): 103.77 and 83.83 and 96.62 (2×) and 91.87 | Tumor volume (LUAD-0087AS2 PDX; treatment day 24): 72.18 (2×) and 83.97 and 80.89 and 74.9 | Tumor volume (LUAD-0087AS2 PDX; treatment day 29): 80.89 (2×) and 72.18 and 85.5 and 74.9 | Tumor volume (LUAD-0087AS2 PDX; treatment day 32): 80.89 (3×) and 75.04 and 70.69 | Tumor volume (LUAD-0087AS2 PDX; treatment day 35): 82.36 and 75.04 and 88.7 and 80.89 and 70.69 | Tumor volume (LUAD-0087AS2 PDX; treatment day 38): 79.29 and 75.04 and 88.7 and 80.89 and 70.69 | Tumor volume (LUAD-0087AS2 PDX; treatment day 42): 79.29 and 75.04 and 98.67 and 80.89 and 77.87 | Tumor volume (LUAD-0087AS2 PDX; treatment day 45): 79.29 and 72.18 and 98.67 and 68.07 and 73.54
